{"source": "patent US20020137780A1", "about": "“Differentiating agents for the treatment of inflammatory intestinal diseases” (priority 1995, published 2002)", "key": {"Caco-2 cells [1]": {"system": "Caco-2 cells", "details": "concentrations of 10-8 and 10-9; cited from earlier work"}, "IL-8 mRNA": {"system": "IL-8 mRNA", "assay": "Inhibition of IL-1β stimulated IL-8 gene expression in Caco-2 cells (Northern blot)", "assay_type": "cell-based", "description": "Caco-2 cells (American Type Culture Collection, Rockville, Maryland) were plated at a density of 4×10^4 cells per cm^2 in 10 cm dishes containing Dulbecco's modified Eagle's medium (DMEM) with 10% fetal bovine serum and penicillin/streptomycin as described by Wu et al., J. Biol. Chem., 1992, 267:7863-7870 and Traber et al., Mol. Cell. Biol., 1992, 12:3614-3627. At days 5 (pre-confluent state) and 18 (post-confluent state) the cells were stimulated with complete medium containing 5 ng/ml of IL-1β (R and D Systems, Minneapolis, MN). Total RNA was isolated from these cells 2 and 4 hours after the addition of IL-1 containing medium as well as from a control cell population not treated with IL-1β in accordance with procedures described by Chomczynski, P. and Sacchi, N., Anal. Biochem., 1987, 162:156-159. Ten micrograms of RNA for each sample was electrophoretically separated, transferred to a nylon membrane, and UV crosslinked in accordance with procedures described by Traber et al., Am. J. Physiol., 1992, 262:G123-G130. A cDNA probe for IL-8 was prepared by RT-PCR of total RNA from Caco-2 cells stimulated with IL-1 for 2 hours. Random hexamers were used for reverse transcription of the RNA using reaction conditions similar to those described by Wu et al., Gastroenterology, 1993, 105:837-844. A 277 bp cDNA was amplified from the RT reaction by PCR using the 5′ primer IL-8(+103) and the 3′ primer IL-8(EX4), cloned using a TA-vector (Marchuk et al., Nuc. Acids Res., 1991, 19:1154), and labeled with ^32p using a Random Primers DNA labeling System (Gibco BRL, Gaithersburg, Md.). Hybridization of the Northern blots were performed using conditions as described by Huang et al., Mol. Endo., 1993, 7:1391-1398."}, "[2]": {"system": "murine erythroleukemia cells", "details": "in vitro; cited from earlier work"}, "[3]": {"system": "alkaline phosphatase mRNA", "assay": "Induction of alkaline phosphatase mRNA, marker for intestinal epithelial cell differentiation, in Caco-2 cells", "assay_type": "cell-based"}, "Caco-2 cells [4]": {"system": "Caco-2 cells", "assay": "Caco-2 cell toxicity / cell death during treatment with differentiating agents"}, "[5]": {"details": "e.g. six premature infants fed butyrates for 4 days at about 20 mmol/kg/day; cited from earlier work"}, "cell proliferation": {"system": "cell proliferation", "details": "same dose; cited from earlier work"}, "[6]": {"details": "orally or intraperitoneally, 26.5 mmole/kg; cited from earlier work"}}, "data": [{"molecule": "C=C1/C(=C\\C=C2/CCC[C@]3(C)[C@@H]([C@H](C)CCCC(C)(C)O)CC[C@@H]23)C[C@@H](O)C[C@@H]1O", "note": "[1,25-(OH)2D3, 1,25-dihydroxyvitamin D3]", "values": [{"measurement": "Caco-2 cell proliferation", "setting": "Caco-2 cells [1]", "value": "inhibit"}, {"measurement": "markers of intestinal epithelial differentiation", "setting": "Caco-2 cells [1]", "value": "induce"}, {"measurement": "steady state IL-8 mRNA expression", "setting": "IL-8 mRNA; concentrations of 10-8 and 10-9, IL-1β 5 ng/ml for 2 hours", "value": "decrease"}]}, {"molecule": "CCCC(=O)O", "note": "[butyric acid]", "values": [{"measurement": "erythroid differentiation of erythroleukemia", "setting": "[2]", "value": "induced"}]}, {"molecule": "CCCC(=O)OCC(O)CO", "note": "(centres unmarked) [monobutyrin]", "values": [{"measurement": "erythroid differentiation of erythroleukemia", "setting": "[2]", "value": "induced"}, {"measurement": "potency relative to butyric acid on a molar basis", "setting": "[2]", "value": "much less potent"}]}, {"molecule": "CCCC(=O)[O-].[Na+]", "note": "[sodium butyrate]", "values": [{"measurement": "mRNA for alkaline phosphatase", "setting": "[3]; sodium butyrate 2.5 mM", "value": "induction"}, {"measurement": "concentration causing significant toxicity and cell death", "setting": "Caco-2 cells [4]; Caco-2 cells", "value": "higher than 2.5 mM"}, {"measurement": "tolerance by Caco-2 cells / cell death", "setting": "Caco-2 cells [4]; sodium butyrate 0.1 to 2.5 mM", "value": "well-tolerated by Caco-2 cells without any evidence of cell death"}, {"measurement": "concentration of maximal inhibition of IL-8 mRNA expression", "setting": "IL-8 mRNA; Caco-2 cells, IL-1β 5 ng/ml for 2 hours", "value": 2.5, "unit": "mM"}, {"measurement": "steady state levels of IL-8 mRNA", "setting": "IL-8 mRNA; sodium butyrate 0.1 to 2.5 mM, 3 days, IL-1β 5 ng/ml for 2 hours", "value": "dose dependent reduction"}, {"measurement": "expression of IL-8 mRNA", "setting": "IL-8 mRNA; sodium butyrate at concentrations higher than 2.5 mM", "value": "increased expression"}]}, {"molecule": "CCC(=O)[O-].[Na+]", "note": "[sodium propionate]", "values": [{"measurement": "alkaline phosphatase mRNA expression", "setting": "[3]; sodium propionate 0.1 to 20 mM", "value": "induction"}, {"measurement": "cell toxicity or death", "setting": "Caco-2 cells [4]; maximum concentration studied, 20 mM", "value": "did not lead to cell toxicity or death"}, {"measurement": "IL-8 mRNA expression", "setting": "IL-8 mRNA; sodium propionate 0.1 to 20 mM, IL-1β 5 ng/ml for 2 hours", "value": "inhibited IL-8 mRNA expression in a dose dependent fashion"}]}, {"molecule": "CCCC(=O)OCC(COC(=O)CCC)OC(=O)CCC", "note": "[tributyrin]", "values": [{"measurement": "tolerability in humans", "setting": "[5]", "value": "well tolerated"}, {"measurement": "erythroid differentiation of erythroleukemia", "setting": "[2]", "value": "induced"}, {"measurement": "potency relative to butyric acid on a molar basis", "setting": "[2]", "value": "3- to 4 fold"}, {"measurement": "concentration giving identical biological response, relative to sodium butyrate", "setting": "IL-8 mRNA; in vitro, differentiation and inhibition of IL-8 gene expression", "value": "one third"}, {"measurement": "effectiveness in inhibiting cell proliferation relative to sodium butyrate", "setting": "cell proliferation", "value": "only as effective as sodium butyrate"}, {"measurement": "toxicity in mice", "setting": "[6]", "value": "No toxicity"}]}, {"molecule": "phenylacetate", "values": [{"measurement": "Caco-2 cell toxicity", "setting": "Caco-2 cells [4]; any concentration of phenylacetate studied (2.5 to 10 mM)", "value": "no evidence of Caco-2 cell toxicity"}, {"measurement": "IL-8 mRNA expression", "setting": "IL-8 mRNA; phenylacetate 2.5 to 10 mM, IL-1β 5 ng/ml for 2 hours", "value": "Dose dependent inhibition"}]}]}
